{
  "source": "patent US12497446B2",
  "about": "“Tetranectin-targeting monoclonal antibodies to fight against lethal sepsis and other pathologies” (The Feinstein Institutes For Medical Research, priority 2019, dated 2025)",
  "key": {"[1]": {"test_system": "Murine macrophage-like RAW 264.7 cells", "experiment": "Cellular HMGB1 and TN uptake", "assay_type": "cell-based, mouse", "details": "Dynasore 8.0 μM or mAb8 60 μg/ml, 2 h", "description": "Highly purified recombinant HMGB1 and TN protein were labeled with either Alexa Fluor 555 or Alexa Fluor 488 using respective labeling kit (Cat. # A30007 or Cat. # A30006, Thermo Fisher Scientific) according to the manufacturer's instructions. Murine macrophage-like RAW 264.7 cells on cover slips were incubated with unlabeled or Alexa Fluor 555-labeled HMGB1 in the absence or presence of unlabeled or Alexa Fluor 488-labeled TN at 37° C. for 2 h. An endocytosis inhibitor, Dynasore (8.0 μM), or mAb8 (60 μg/ml) were added 30 min before the addition of HMGB1 or TN. Following extensive washings with 1×PBS, cells were fixed with 4% formalin for 20 min at room temperature and mounted on the slide using Vectashield Mounting Medium for Fluorescence with DAPI (Vector Laboratories, Inc., Cat. # H-1200) for nuclei staining (blue). Endocytic uptake of Alexa Fluor 555-labeled HMGB1 (red) or Alexa Fluor 488-labeled TN (green) was visualized via Carl Zeiss fluorescence microscope. To quantitate cellular uptake of HMGB1 and TN, macrophage cultures were incubated with recombinant HMGB1 and TN either individually, or in combination, at 37° C. for 2 h. Following extensive washing, cellular levels of HMGB1 and TN were measured by Western blotting analysis with reference to a house-keeping protein, β-actin."}, "[2]": {"test_system": "murine peritoneal macrophages", "experiment": "TN/HMGB1-induced macrophage cell death (trypan blue, LDH release)", "assay_type": "cell-based, mouse", "details": "dynasore 10.0 μM, 16 h", "description": "(§1) FIG. 12(A)-12(C): TN and HMGB1 cooperate to induce macrophage cell death. 12(A) Thioglycolate-elicited murine peritoneal macrophages were treated with TN (10 μg/ml) in the absence or presence of HMGB1 (0.5 μg/ml), TN-specific mAb8 (65.0 μg/ml), or dynasore (10.0 μM) for 16 h, and cell viability was assessed by trypan blue dye exclusion or LDH release assay. *, P<0.05 versus negative control; #, P<0.05 versus “+TN” or “+HMGB1” alone; &, P<0.05 versus positive control “+TN+HMGB1” group, n=6-10 per group. 12(B) Murine peritoneal macrophages were stimulated with TN (10 μg/ml) in the absence or presence of HMGB1 (1.0 μg/ml) for 16 h, and the cell-conditioned medium was assayed for ASC release by Western blotting analysis. SDS-PAGE gel indicated equivalent sampling loading. Bar graph represented average of three samples (n=3) from two independent experiments (N=2). *, P<0.05 versus negative controls (“−HMGB1−TN”); #, P<0.05 versus positive control (“+HMGB1” or “+TN” alone). 12(C) Differentiated human macrophages were stimulated with HMGB1 (1.0 μg/ml) and TN (10.0 μg/ml) in the absence or presence of TN-specific mAb (40 μg/ml) or dynasore (20.0 μM) for 16 h. Subsequently, cells were immunostained with Alexa Fluor 594-conjugated anti-ASC IgGs. Scale bars: 10 μm. Narrow arrows point to minute ASC puncta; Wide arrow points to a larger ASC speck. […]"}, "[3]": {"test_system": "differentiated human macrophages", "experiment": "TN/HMGB1-induced formation of ASC foci/speck", "assay_type": "cell-based", "details": "dynasore 20.0 μM, 16 h", "description": "as §1"}},
  "data": [
    {"smiles": "O=C(N/N=C/c1ccc(O)c(O)c1)c1cc2ccccc2cc1O", "note": "[dynasore]", "values": [
      {"measurement": "HMGB1-enhanced cellular uptake of TN", "setting": "[1]", "result": "similarly attenuated"},
      {"measurement": "TN-mediated enhancement of cellular HMGB1 uptake", "setting": "[1]", "result": "prevented"},
      {"measurement": "TN/HMGB1 induced cell death", "setting": "[2]", "result": "inhibit"},
      {"measurement": "TN/HMGB1 induced ASC aggregation", "setting": "[3]", "result": "inhibit"}
    ]}
  ]
}
